ChEMBL document CHEMBL1149978, “Synthesis of adamantane spiro sultones as potential antiviral agents” (Bioorg Med Chem Lett, 1992)
Calls of active or inactive are those of the source.

Key:
[1] = test system: Human immunodeficiency virus 1; assay: Antiviral activity against human immunodeficiency virus type 1 (HIV-1) at concentrations up to 200 ug/mL; NA means Inactive; assay type: functional, organism-based
[2] = test system: Human immunodeficiency virus 2; assay: Antiviral activity against human immunodeficiency virus type 2 (HIV-2) at concentrations up to 200 ug/mL; NA means Inactive; assay type: functional, organism-based
Human respirovirus 3 = assay: Antiviral activity against parainfluenza-3 at concentrations up to 200 ug/mL; NA means Inactive; assay type: functional, organism-based
Influenza A virus = assay: Antiviral activity against influenza-A at concentrations up to 200 ug/mL; NA means Inactive; assay type: functional, organism-based
Influenza B virus = assay: Antiviral activity against influenza-B at concentrations up to 200 ug/mL; NA means Inactive; assay type: functional, organism-based
[3] = Antiviral activity against respiratory syncytial at concentrations up to 200 ug/mL; NA means Inactive; assay type: functional
[4] = Antiviral activity against measles at concentrations up to 200 ug/mL; NA means Inactive; assay type: functional

Measured: Activity

NC1=CS(=O)(=O)OC12C1CC3CC(C1)CC2C3 (configuration not stated)
inactive: [1] | [2] | Human respirovirus 3 | Influenza A virus | Influenza B virus

O=C1CS(=O)(=O)OC12C1CC3CC(C1)CC2C3 (configuration not stated)
inactive: [1] | [2] | Human respirovirus 3 | [3] | Influenza A virus | Influenza B virus | [4]
